Data reported in patent US7960339B2, “Antimicrobial peptides” (Österreichische Akademie der Wissenschaften, priority 2006, dated 2011).
Where two headings read alike, the source gives them in different places. Ends that are not written are not given here. Peptide text beside a SMILES is read from it. * marks the point of attachment. Butanoyl(2,2-Me2) = CCC(C)(C)C(=O)*; Octanoyl(6-Me) = CCC(C)CCCCC(=O)*

How the values were obtained:
C. neoformans ATCC 32045 = type: cell-based
How it was run: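 Fungal inoculum was about 1×10^5 to 5×10^5 CFU/ml in 2×YM broth, added to peptides dispensed at 1 mg/ml to 1 μg/ml in twofold serial dilutions. After 72 hrs at 26° C, relative growth was read as OD620. IC50 values came from sigmoidal curve fitting.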

LPS S. Minnesota Re595 = experiment: Endpoint LAL activity (Limulus gel-clotting test), inhibition of lipid A-induced LAL enzymatic cascade; type: biochemical; settings: sensibility 0.125 EU/ml, peptide:LPS 100:1 (w/w), minimum of 6 tests in triplicate
Method: (§1) The principle of lipid A-induced pro-inflammatory cytokine activity leading to hemorrhagic dermonecrosis (classical Shwartzmann reaction) was tested in rabbit, an animal model very close to humans in terms of sensitivity to LPS activity, and was compared to the inhibition of the lipid A-induced LAL enzymatic cascade activation leading to clot. Thereby, New Zealand White rabbits were injected in the shaved dorsal region with S. minnesota Re595 lipid A alone or with peptide 1:100 (w/w) (5 μg in 0.2 ml saline buffer; route i.d.). […] Polymyxin B (PmB) was used as a control.

LPS Re595 = experiment: Local Shwartzmann reaction in rabbit (lipid A-induced hemorrhagic dermonecrosis); type: in vivo, New Zealand White rabbits; settings: i.d. injection in shaved dorsal region; open necrosis observed after 72-96 hours; minimum 3 injections in minimum 3 rabbits
Method: as §1

E. coli (strain 0:111) = experiment: Antimicrobial assay with peptide immobilized on magnetic particles; type: cell-based; settings: over night
Method: Peptide P2-32 (500 μg) was covalently bound to the cyanuric chloride-activated magnetic particles (10 mg) (Chemicell, Product number 1314) using phosphate buffer saline pH=7.5. After mixing the suspension on a shaker for 2 hours at room temperature the blocking buffer (PBS pH=7.5 and 2% ethanolamine) were added and mixed the suspension on a shaker for 30 minutes at room temperatures. The particles were washed twice with PBS. Immobilized peptides were tested against E. coli (strain 0:111) grown in LB medium to the absorbance at 600 nm of 0.4 and diluted 2500 fold in LB medium. Different concentrations of magnetic particles immobilized with peptides were added and incubated over night.

MonoMac6 cells = experiment: Release of TNFα from MonoMac6 cells stimulated by bacteria killed with antibiotics or peptides (ELISA); type: cell-based; settings: E. coli strain 0:111 incubated over night with agent, then 15 hours on 10^5 MonoMac6 cells; FIG. 5
Method: Bacteria can be killed by different antibiotics, targeting different molecules essential for bacterial survival. When Gram-negative bacteria are killed, released LPS can stimulate production of cytokines, such as TNFα, or other inflammatory mediators. Comparison of well-established antimicrobial agents acting through different cellular targets with compounds of this invention were done in the following manner: bacteria (E. coli strain 0:111) were grown in LB medium to the absorbance at 600 nm of 0.4 and diluted 2500 fold in RPMI medium with added glucose. Different concentrations of antibiotics or peptides from this invention were added and incubated over night. 80 μl of cell suspension was added to the 100 μl containing 10^5 MonoMac6 cells and after 15 hours the release of TNFα to the medium was determined using ELISA test.

[1] = 50% growth inhibition, OD620, 72 hrs at 26° C., 2×YM broth
[2] = lowest concentration that resulted in 2% growth, OD620, 72 hrs at 26° C., 2×YM broth

Compound	average IC50 (C. neoformans ATCC 32045; [1])	average MIC (C. neoformans ATCC 32045; [2])	Endpoint LAL activity peptide: LPS Re595 100:1 (w/w) (LPS S. Minnesota Re595)	Local Shwartzmann reaction in rabbit peptide: LPS Re595 100:1 (w/w) (LPS Re595)	release of TNFα / stimulation of the monocytes (MonoMac6 cells)	further results
CC[C@H](C)[C@H](NC(=O)[C@H](CC(N)=O)NC(=O)[C@H](CCCNC(=N)N)NC(=O)[C@H](CCC(N)=O)NC(=O)[C@H](Cc1c[nH]c2ccccc12)NC(=O)[C@H](Cc1ccccc1)NC(=O)C(C)(C)CC)C(=O)N[C@@H](CCCNC(=N)N)C(=O)N[C@@H](CCCCN)C(=O)N[C@@H](Cc1c[nH]c2ccccc12)C(=O)N[C@@H](CCCNC(=N)N)C(N)=O [VS1-42, 2,2-dimethylbutanoyl FWQRNIRKWR-NH2] ({Butanoyl(2,2-Me2)}-FWQRNIRKWR-NH2)	6 µg/mL	16 µg/mL	NEGATIVE	NEGATIVE		
FWQRNIRKVRRRI-NH2 [Peptide P1-12]			NEGATIVE	NEGATIVE		
FIWRWRWR-NH2 (also: bound to magnetic particles) [Peptide P2-32]						bacterial growth (E. coli (strain 0:111); 0.25 mg immobilized magnetic particles, 100 μl diluted E. coli in LB): not-inhibited; bacterial growth (E. coli (strain 0:111); 0.5 mg immobilized magnetic particles, 100 μl diluted E. coli in LB): not-inhibited; bacterial growth (E. coli (strain 0:111); 1 mg immobilized magnetic particles, 100 μl diluted E. coli in LB): inhibited; bacterial growth (E. coli (strain 0:111); 2.5 mg immobilized magnetic particles, 100 μl diluted E. coli in LB): inhibited; bacterial growth (E. coli (strain 0:111); 5 mg immobilized magnetic particles, 100 μl diluted E. coli in LB): inhibited; bacterial growth (E. coli (strain 0:111); 50, 25 and 10 mg/ml concentrations of immobilized magnetic particles): prevented bacterial growth
KRWSWKK-NH2 [Peptide P1-63]			NEGATIVE	NEGATIVE		
penicilin					high stimulation of the monocytes	
CC[C@H](C)[C@H](NC(=O)[C@H](CC(N)=O)NC(=O)[C@H](CCCNC(=N)N)NC(=O)[C@H](CCC(N)=O)NC(=O)[C@H](Cc1c[nH]c2ccccc12)NC(=O)[C@@H](N)Cc1ccccc1)C(=O)N[C@@H](CCCNC(=N)N)C(=O)N[C@@H](CCCCN)C(=O)N[C@@H](Cc1c[nH]c2ccccc12)C(=O)N[C@@H](CCCNC(=N)N)C(N)=O [VS1-15, FWQRNIRKWR-NH2] (H-FWQRNIRKWR-NH2)	5 µg/mL	16 µg/mL	NEGATIVE	NEGATIVE		
CCC(C)CCCCC(=O)N1CCC[C@H]1C(=O)N[C@@H](Cc1ccccc1)C(=O)N[C@@H](Cc1c[nH]c2ccccc12)C(=O)N[C@@H](CCCNC(=N)N)C(=O)N[C@H](C(=O)N[C@@H](CCCNC(=N)N)C(=O)N[C@H](C(=O)N[C@@H](CCCNC(=N)N)C(=O)N[C@@H](CCCNC(=N)N)C(N)=O)[C@@H](C)CC)[C@@H](C)CC (stereo partly drawn) [VS1-53, 6-methyloctanoyl PFWRIRIRR-NH2] ({Octanoyl(6-Me)}-PFWRIRIRR-NH2)					significantly inhibited the release of TNFα	average IC50 (C. neoformans ATCC 32045; ATCC 32045, 72 h): 6 µg/mL; average MIC (C. neoformans ATCC 32045; ATCC 32045, 72 h): 16 µg/mL
CC[C@H](C)[C@H](NC(=O)[C@H](CCCNC(=N)N)NC(=O)[C@@H](NC(=O)[C@H](CCCNC(=N)N)NC(=O)[C@H](Cc1c[nH]c2ccccc12)NC(=O)[C@H](Cc1ccccc1)NC(=O)[C@@H]1CCCN1C(=O)C(C)(C)CC)[C@@H](C)CC)C(=O)N[C@@H](CCCNC(=N)N)C(=O)N[C@@H](CCCNC(=N)N)C(N)=O [VS1-52, 2,2-dimethylbutanoyl PFWRIRIRR-NH2] ({Butanoyl(2,2-Me2)}-PFWRIRIRR-NH2)	2 µg/mL	4 µg/mL	NEGATIVE	NEGATIVE		
O=C(N[C@H](CO)[C@H](O)c1ccc([N+](=O)[O-])cc1)C(Cl)Cl [chloramphenicol]					high stimulation of the monocytes	
